In US12295983B2, “Use of extracts of the leaves of lemon verbena (Aloysia citriodora) for increasing the neuronal, cerebral availability of neurotransmitters selected from the group of serotonin, dopamine, noradrenaline” (Finzelberg GMBH & Co. KG, priority 2018, dated 2025):
Like-named read-outs stand apart in the source and are kept apart here.

What was measured:
[1] = system: transgenic C. elegans strain CL4176 expressing human β-amyloid (Aβ 1-42); assay: β-Amyloid-induced toxicity (paralysis, PT50) in C. elegans model; format: in vivo, Caenorhabditis elegans; conditions: 200 μg/ml; negative control 31.0 ± 0.4
Procedure: In order to test the effect on β-amyloid toxicity, the transgenic C. elegans strain CL4176, which can express human β-amyloid (Aβ 1-42), was employed. Aβ expression can be induced by increasing the temperature. Age-synchronized and treated worms were incubated at 16° C. for 48 hours. After increasing the temperature to 25° C. and incubation for 24 hours, the worms began to get paralyzed because of the toxicity of the Aβ oligomer. The paralysis was evaluated every 2 hours (experimental set-up according to Heiner et al.: Sideritis scardica extracts inhibit the aggregation of α-synuclein and β-amyloid peptides in Caenorhabditis elegans used as a model for neurodegenerative diseases. Planta Medica 81—PW_127, 2015). Substances that counteract this toxic effect of β-amyloid lead to a slower or later paralysis of the animals. Such substances delay the neurodegeneration, inter alia, in Alzheimer's dementia. The median (PT50), which is the time when exactly 50% of the nematodes were paralyzed, was used as a comparative value.

[2] = system: transgenic C. elegans strain CL2355 expressing human β-amyloid pan-neuronally; assay: β-Amyloid-induced neuronal dysfunction, chemotaxis towards benzaldehyde; format: in vivo, Caenorhabditis elegans
Procedure: β-Amyloid species can damage neurons and trigger a dysfunction of neuronally controlled behavior. The transgenic C. elegans strain CL2355 expresses human β-amyloid on a pan-neuronal level. This leads to cognitive disorders, such as reduced chemotactic movement towards an attractant (benzaldehyde). In the experiments, the chemotaxis index, i.e., the proportion of worms moved towards the attractant on the agar plate, was measured. […] The experiment was performed in accordance with […] et al.

[3] = target: T1, serotonin reuptake in synaptosomes from rat cortex (Rattus norvegicus, UniProt P31652); assay: Serotonin reuptake test with [3H]-serotonin in freshly isolated synaptosomes; format: biochemical; conditions: ratio of reuptake IC50 values
T1 construct: Freshly isolated synaptosomes from rats were used; from tissue; host or cells: synaptosomes from rat cortex
Procedure: Freshly isolated synaptosomes from rats were used according to Perovic and Müller [Perovic S, Müller W E, 1995, Arzneimittelforschung 45; 1145-1148] for a dopamine reuptake test, and a serotonin reuptake test, and a noradrenaline reuptake test. [^3H]-dopamine, [^3H]-noradrenaline and [^3H]-serotonin, respectively, served as the ligands. The test substance was incubated with the synaptosomes and the corresponding ligand for 15 min at 37° C. in the dark. The samples were then transferred to GF/C filter plates, and washed cold twice, and dried, before the filter-bound radioactivity was measured with a microtitration plate counter (Microbeta, Wallac, Finland). For determining the 100% reuptake, the experiment was performed without test substances. The measured value for incubation with corresponding inhibitors (GBR12909 in the dopamine reuptake inhibition, protriptyline in the noradrenaline reuptake inhibition, and imipramine hydrochloride for the serotonin reuptake inhibition) was considered as a 0% uptake.

[4] = target: T1, serotonin reuptake in synaptosomes from rat cortex; conditions: read-out: Serotonin (IC50 μg/ml); literature value, Markowitz et al.; cited from earlier work
[5] = system: noradrenaline reuptake in synaptosomes from rat cortex; conditions: literature value, cited from earlier work
[6] = target: T2, dopamine reuptake in synaptosomes from rat cortex (Rattus norvegicus, UniProt P23977); conditions: read-out: Dopamine (IC50 μg/ml), literature value, cited from earlier work
T2 construct: Freshly isolated synaptosomes from rats were used; from tissue; host or cells: synaptosomes from rat cortex

[7] = system: dopaminergic neurons of transgenic C. elegans strain BZ555; assay: Protection of dopaminergic neurons from 6-OHDA-induced degeneration (GFP fluorescence); format: in vivo, Caenorhabditis elegans; conditions: worms + 50 mM 6-OHDA + 100 μg/ml; negative control 34.3 ± 4.3
Procedure: 6-Hydroxydopamine (6-OHDA) damages dopaminergic neurons, which is used in different animal models. The transgenic C. elegans strain BZ555 expresses green fluorescent protein in dopaminergic neurons. Thus, the 6-OHDA-induced neurodegeneration or the reduction thereof can be quantified by fluorescence microscopy. The worms were exposed to 50 mM 6-OHDA, which reduces the fluorescence intensity of the neurons because of the degeneration thereof. Bupropione, a selective noradrenaline and dopamine reuptake inhibitor (NDRI), serves as the positive control. Through the inhibition of the noradrenaline (NA) or dopamine (DA) transporters (reuptake), bupropion prevents the neurotoxin 6-OHDA from getting into and damaging the neurons.

T2 sequence (P23977 whole entry): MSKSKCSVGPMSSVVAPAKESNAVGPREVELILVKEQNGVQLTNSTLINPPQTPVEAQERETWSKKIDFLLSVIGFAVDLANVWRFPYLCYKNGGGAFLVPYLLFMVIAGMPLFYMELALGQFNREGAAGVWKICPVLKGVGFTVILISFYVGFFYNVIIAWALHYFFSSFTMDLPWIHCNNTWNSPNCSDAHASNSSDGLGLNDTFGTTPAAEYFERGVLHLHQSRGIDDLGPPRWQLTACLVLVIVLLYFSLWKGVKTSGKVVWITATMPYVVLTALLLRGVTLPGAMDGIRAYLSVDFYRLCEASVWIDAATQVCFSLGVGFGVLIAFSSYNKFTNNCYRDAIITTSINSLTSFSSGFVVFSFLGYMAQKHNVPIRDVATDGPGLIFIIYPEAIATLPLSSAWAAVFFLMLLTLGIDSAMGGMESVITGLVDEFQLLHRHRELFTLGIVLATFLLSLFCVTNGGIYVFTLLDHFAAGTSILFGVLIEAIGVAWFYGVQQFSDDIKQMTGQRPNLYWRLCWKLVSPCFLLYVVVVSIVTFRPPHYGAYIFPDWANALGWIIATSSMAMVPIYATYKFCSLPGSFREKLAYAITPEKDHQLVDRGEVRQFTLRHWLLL
T1 sequence (P31652 whole entry): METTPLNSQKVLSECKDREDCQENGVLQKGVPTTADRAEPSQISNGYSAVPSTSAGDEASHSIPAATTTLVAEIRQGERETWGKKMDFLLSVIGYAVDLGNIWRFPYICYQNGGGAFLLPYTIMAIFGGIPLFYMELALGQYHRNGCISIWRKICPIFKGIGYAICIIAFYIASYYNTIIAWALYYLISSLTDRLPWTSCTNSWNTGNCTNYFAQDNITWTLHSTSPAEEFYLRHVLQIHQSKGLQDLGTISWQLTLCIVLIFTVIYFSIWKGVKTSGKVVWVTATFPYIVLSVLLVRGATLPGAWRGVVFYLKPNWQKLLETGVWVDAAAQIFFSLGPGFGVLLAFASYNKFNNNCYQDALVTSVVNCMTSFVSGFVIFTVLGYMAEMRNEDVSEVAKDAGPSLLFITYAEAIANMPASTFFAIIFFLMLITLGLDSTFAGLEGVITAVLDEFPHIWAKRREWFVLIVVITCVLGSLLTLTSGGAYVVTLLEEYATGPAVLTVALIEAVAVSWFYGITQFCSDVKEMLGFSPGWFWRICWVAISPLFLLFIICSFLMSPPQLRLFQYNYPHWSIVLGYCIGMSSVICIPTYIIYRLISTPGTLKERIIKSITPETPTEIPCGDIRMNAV

For `C[C@@H]1O[C@@H](O[C@@H]2[C@@H](O)[C@H](OCCc3ccc(O)c(O)c3)O[C@H](CO)[C@H]2OC(=O)/C=C/c2ccc(O)c(O)c2)[C@H](O)[C@H](O)[C@H]1O` [acteoside], the “PT50 value” [1] was 32.8 ± 0.3 h, the “share of the chemotaxis index of the control strain CL2122 reached” value ([2]; 200 μg/ml) was “about 88%” and the Chemotaxis index ([2]; CL2355, 200 μg/ml, untreated 0.10 ± 0.04, control strain CL2122 0.50 ± 0.09) was 0.45 ± 0.02 (p < 0.05).

For `COC(=O)C(c1ccccc1)C1CCCCN1` (stereo not shown) [Methylphenidate], the “activity ratio of serotonin to noradrenaline (factor)” value [3] is listed as 86, the IC50 [4] is listed as 18.5 µM and the “Noradrenaline (IC50 μg/ml)” value ([5]; Markowitz et al.) is listed as 0.052 µg/mL. For the same compound, the “Noradrenaline (IC50 μg/ml)” value ([5]; Sommer et al.) was 0.050 µg/mL, the IC50 ([6]; Markowitz et al.) was 1.11 µM and the IC50 ([6]; Sommer et al.) was 0.489 µM.

With `CC(NC(C)(C)C)C(=O)c1cccc(Cl)c1` (stereo not shown) [bupropion] the “Fluorescence intensity [% of untreated group]” value [7] was 68.2 ± 7.7 % of untreated group.
